The values below come from patent publication US10041953B2, “Mass spectrometric determination of drug resistance” (priority 2013, dated 2018).

≈ marks a conversion by molar mass, not a printed value.

For orientation: MIC means the least concentration at which growth counts as inhibited. A low value points to greater potency.

What all share (assay type): cell-based
For test [1], the system named is salmonella wild type (13471). Briefly: MIC for ciprofloxacin, wild type (13471). The settings on record: wild type gyrase.
The next test deals with Salmonella strain 17109. Briefly: MIC for ciprofloxacin, Salmonella strain 17109. As to conditions: Salmonella strain 17109, one gyrase amino acid substitution.
The next test has as its system Salmonella strain 6836. The experiment in a line: MIC for ciprofloxacin, Salmonella strain 6836. The settings on record: Salmonella strain 6836, double gyrase mutation.
The subject of the next test is Salmonella strain 19222. The experiment in a line: MIC for ciprofloxacin, Salmonella strain 19222. The settings on record: Salmonella strain 19222, one gyrase amino acid substitution.

On to `O=C(O)c1cn(C2CC2)c2cc(N3CCNCC3)c(F)cc2c1=O` [ciprofloxacin], for which the minimal inhibitory concentration (MIC) in test [1] is 0.03 µg/mL (≈ 0.0905 µM); in the test with Salmonella strain 17109, 1 µg/mL (≈ 3.02 µM); in the test on Salmonella strain 6836, 32 µg/mL (≈ 96.6 µM); against Salmonella strain 19222 it was 1 µg/mL (≈ 3.02 µM).
